Results: US20260151345A1, “FAST-DISSOLVING DOSAGE FORMS AND USES THEREOF” (Astrocyte Pharmaceuticals, Inc., priority 2022, published 2026)
Where “and” joins values, the source holds several entries; their conditions need not be identical. Identical values can stand only once. Like-named read-outs stand apart in the source and are kept apart here.

Columns and labels:
male Beagle dogs = assay: Tolerability (cageside observations) after ODT dose; type: in vivo; settings: 50.75 mg/dose via ODT
Description: (§1) Dosing occurred at 50.75 mg/dose. The ODT was placed on the dog's tongue and the mouth held shut for approximately 30 seconds to allow the material to dissolve. In each case, the tablet quickly formed a white paste that was adhered to the tongue and was not swallowed whole.
Cageside Observations, General signs of toxicity including fecal and urine quality, were completed approximately 1 hour post dose on dose days.

[1] = Pharmacokinetics / bioavailability after oral disintegrating tablet dose; type: in vivo, male Beagle dogs; settings: for AUC(0-t) / AUC(0-inf) / Cmax / Tmax / half-life: po, 50.75 mg
Description: The purpose of this study was to evaluate the bioavailability of Compound A following administration of the ODT formulation. Animals were administered Compound A, as described in the following table.
as §1
Whole blood samples were collected from all animals as noted in the following table for determination of test article exposure.
• Method: LC-MS/MS • Column: Restek Raptor ARC-18 2.7 μm (30×2.1 mm) • Mobile Phase A: 0.1% Formic Acid in Water • Mobile Phase B: 0.1% Formic Acid in Acetonitrile • Ionization: (±) ESI with Ion Spray • Analyte: Compound A • MRM: m/z 324.200/182.200 amu • Internal Standard: Labetalol • MRM: m/z 329.200/294.200 amu • Assay Range (LLOQ and ULOQ): 1-5000 ng/mL
Pharmacokinetic concentration-time data for Compound A was analyzed using non-compartmental methods (Phoenix® WinNonlin® Version 8.1) with nominal sampling times and dosages. The following parameters were calculated whenever possible and as data allowed: Volume of distribution, Clearance, tl/2, C0/Cmax, Tmax, % F. and AUC. Additional parameters may have been calculated as appropriate. Descriptive statistics were generated using Phoenix WinNonlin.

[2] = single ODT dose 50.75 mg/dose, male Beagle dogs

**Q.** With CSc1nc(N)c2ncn([C@H]3[C@H](O)[C@H](O)[C@]4(CO)C[C@H]34)c2n1 [Compound A] as the compound, how does the Tolerability (male Beagle dogs) read?
**A.** well tolerated

**Q.** What about the “Compound A Plasma Concentration, individual animals” value (from here on “Compound A Plasma Concentration”) ([1]; 0.25 hr postdose, ODT 50.75 mg/dose, male Beagle dogs) of the same compound?
**A.** 356 ng/mL and 309 ng/mL and 352 ng/mL and 114 ng/mL

**Q.** And the “Compound A Plasma Concentration” value ([1]; 0.5 hr postdose, ODT 50.75 mg/dose, male Beagle dogs)?
**A.** 2300 ng/mL and 1840 ng/mL and 1690 ng/mL and 622 ng/mL

**Q.** And the “Compound A Plasma Concentration” value ([1]; 1 hr postdose, ODT 50.75 mg/dose, male Beagle dogs)?
**A.** 2370 ng/mL and 2510 ng/mL and 1810 ng/mL

**Q.** And the “Compound A Plasma Concentration” value ([1]; 2 hr postdose, ODT 50.75 mg/dose, male Beagle dogs)?
**A.** 1990 ng/mL and 2070 ng/mL and 1530 ng/mL

**Q.** What about the “Compound A Plasma Concentration” value ([1]; 4 hr postdose, ODT 50.75 mg/dose, male Beagle dogs) of the same compound?
**A.** 1100 ng/mL and 1160 ng/mL and 798 ng/mL

**Q.** And the “Compound A Plasma Concentration” value ([1]; 8 hr postdose, ODT 50.75 mg/dose, male Beagle dogs)?
**A.** 319 ng/mL and 413 ng/mL and 248 ng/mL

**Q.** What about the “Compound A Plasma Concentration” value ([1]; 24 hr postdose, ODT 50.75 mg/dose, male Beagle dogs) of the same compound?
**A.** 132 ng/mL and 48.3 ng/mL and 119 ng/mL and 28.8 ng/mL

**Q.** What about the “Percent F, Mean” value ([1]; N=4, single ODT dose, 4.66 mg/kg dose used for calculation, estimated value) of the same compound?
**A.** 114%

**Q.** And the concentration at 0.25 h ([1]; male, Beagle, dog, plasma, oral, 50.75 mg/dose, 0.25 hr postdose, N=4, ODT 50.75 mg/dose, male Beagle dogs, read-out: Compound A Plasma Concentration, Mean)?
**A.** 283 ng/mL

**Q.** What about the concentration at 0.5 h ([1]; male, Beagle, dog, plasma, oral, 50.75 mg/dose, 0.5 hr postdose, N=4, ODT 50.75 mg/dose, male Beagle dogs, read-out: Compound A Plasma Concentration, Mean) of the same compound?
**A.** 1610 ng/mL

**Q.** And the concentration at 1 h ([1]; male, Beagle, dog, plasma, oral, 50.75 mg/dose, 1 hr postdose, N=4, ODT 50.75 mg/dose, male Beagle dogs, read-out: Compound A Plasma Concentration, Mean)?
**A.** 2190 ng/mL

**Q.** And the concentration at 1 h ([1]; male, Beagle, dog, plasma, oral, 50.75 mg/dose, 1 hr postdose, ODT 50.75 mg/dose, male Beagle dogs, read-out: Compound A Plasma Concentration, individual animals)?
**A.** 2080 ng/mL

**Q.** What about the concentration at 2 h ([1]; male, Beagle, dog, plasma, oral, 50.75 mg/dose, 2 hr postdose, N=4, ODT 50.75 mg/dose, male Beagle dogs, read-out: Compound A Plasma Concentration, Mean) of the same compound?
**A.** 1810 ng/mL

**Q.** And the concentration at 2 h ([1]; male, Beagle, dog, plasma, oral, 50.75 mg/dose, 2 hr postdose, ODT 50.75 mg/dose, male Beagle dogs, read-out: Compound A Plasma Concentration, individual animals)?
**A.** 1650 ng/mL

**Q.** What about the concentration at 4 h ([1]; male, Beagle, dog, plasma, oral, 50.75 mg/dose, 4 hr postdose, N=4, ODT 50.75 mg/dose, male Beagle dogs, read-out: Compound A Plasma Concentration, Mean) of the same compound?
**A.** 1010 ng/mL

**Q.** What about the concentration at 4 h ([1]; male, Beagle, dog, plasma, oral, 50.75 mg/dose, 4 hr postdose, ODT 50.75 mg/dose, male Beagle dogs, read-out: Compound A Plasma Concentration, individual animals) of the same compound?
**A.** 964 ng/mL

**Q.** And the concentration at 8 h ([1]; male, Beagle, dog, plasma, oral, 50.75 mg/dose, 8 hr postdose, N=4, ODT 50.75 mg/dose, male Beagle dogs, read-out: Compound A Plasma Concentration, Mean)?
**A.** 354 ng/mL

**Q.** And the concentration at 8 h ([1]; male, Beagle, dog, plasma, oral, 50.75 mg/dose, 8 hr postdose, ODT 50.75 mg/dose, male Beagle dogs, read-out: Compound A Plasma Concentration, individual animals)?
**A.** 434 ng/mL

**Q.** What about the concentration at 24 h ([1]; male, Beagle, dog, plasma, oral, 50.75 mg/dose, 24 hr postdose, N=4, ODT 50.75 mg/dose, male Beagle dogs, read-out: Compound A Plasma Concentration, Mean) of the same compound?
**A.** 82 ng/mL

**Q.** What about the AUC(0-t) ([1]; male, Beagle, dog, plasma, N=4, single ODT dose 50.75 mg/dose, male Beagle dogs, read-out: AUC0-24, Mean) of the same compound?
**A.** 12200 ng·h/mL

**Q.** What about the AUC(0-inf) ([1]; male, Beagle, dog, plasma, N=4, single ODT dose 50.75 mg/dose, male Beagle dogs, read-out: AUCinf, Mean) of the same compound?
**A.** 13000 ng·h/mL

**Q.** What about the Cmax ([1]; male, Beagle, dog, plasma, N=4, single ODT dose 50.75 mg/dose, male Beagle dogs, read-out: Cmax, Mean) of the same compound?
**A.** 2250 ng/mL

**Q.** What about the Tmax ([1]; male, Beagle, dog, plasma, N=4, single ODT dose 50.75 mg/dose, male Beagle dogs, read-out: Tmax, Mean) of the same compound?
**A.** 0.88 h

**Q.** What about the half-life ([1]; male, Beagle, dog, plasma, N=4, single ODT dose 50.75 mg/dose, male Beagle dogs, read-out: t1/2, Mean (converted)) of the same compound?
**A.** 5.51 h

**Q.** What about the AUC(0-t) ([1]; male, Beagle, dog, plasma, single ODT dose 50.75 mg/dose, male Beagle dogs, read-out: AUC0-24, individual animals) of the same compound?
**A.** 9020 ng·h/mL

**Q.** What about the AUC(0-inf) ([1]; male, Beagle, dog, plasma, single ODT dose 50.75 mg/dose, male Beagle dogs, read-out: AUCinf, individual animals) of the same compound?
**A.** 9200 ng·h/mL

**Q.** What about the Cmax ([1]; male, Beagle, dog, plasma, single ODT dose 50.75 mg/dose, male Beagle dogs, read-out: Cmax, individual animals) of the same compound?
**A.** 1810 ng/mL

**Q.** And the Tmax ([1]; male, Beagle, dog, plasma, single ODT dose 50.75 mg/dose, male Beagle dogs, read-out: Tmax, individual animals)?
**A.** 1 h

**Q.** And the half-life ([1]; male, Beagle, dog, plasma, single ODT dose 50.75 mg/dose, male Beagle dogs, read-out: t1/2, individual animals (converted))?
**A.** 4.41 h

**Q.** And the “AUC0-24, individual animals” value [1, 2]?
**A.** 13300 ng·h/mL and 12400 ng·h/mL and 14300 ng·h/mL

**Q.** What about the “AUCinf, individual animals” value [1, 2] of the same compound?
**A.** 14700 ng·h/mL and 12700 ng·h/mL and 15300 ng·h/mL

**Q.** And the “Cmax, individual animals” value [1, 2]?
**A.** 2300 ng/mL and 2370 ng/mL and 2510 ng/mL

**Q.** And the “Tmax, individual animals” value [1, 2]?
**A.** 0.50 h

**Q.** And the “t1/2, individual animals” value [1, 2]?
**A.** 7.51 h and 4.33 h and 5.79 h

**Q.** What about the “Percent F, individual animals” value ([1]; single ODT dose, 4.66 mg/kg dose used for calculation, estimated from nominal dose and estimated AUCinf, 4.66 mg/kg) of the same compound?
**A.** 80.5% and 116% (2×) and 143%
